Data from ChEMBL document CHEMBL4152218, “Novel hydrazide-hydrazone and amide substituted coumarin derivatives: Synthesis, cytotoxicity screening, microarray, radiolabeling and in vivo pharmacokinetic studies” (Eur J Med Chem, 2018).
Active and inactive are the calls of the source.

What was measured:
[1] = Selectivity index, ratio of IC50 for hTERT-RPE1 cells to IC50 for human CCRF-CEM cells; type: toxicity; conditions: hTERT-RPE1 cells versus CCRF-CEM cells, read-out: Ratio IC50
PANC-1 [2] = assay: Effect on GSTM1 gene expression in human PANC1 cells at IC50 after 48 hrs by microarray analysis; type: functional, cell-based
HepG2 [3] = assay: Effect on GRP gene expression in human HepG2 cells at IC50 after 48 hrs by microarray analysis; type: functional, cell-based
PANC-1 [4] = assay: Effect on CYP1A1 gene expression in human PANC1 cells at IC50 after 48 hrs by microarray analysis; type: ADME, cell-based; conditions: panc-1, 48 h
PANC-1 [5] = assay: Effect on TOP2A gene expression in human PANC1 cells at IC50 after 48 hrs by microarray analysis; type: functional, cell-based
HepG2 [6] = assay: Effect on GADD45G gene expression in human HepG2 cells at IC50 after 48 hrs by microarray analysis; type: functional, cell-based
HepG2 [7] = assay: Effect on TOP2A gene expression in human HepG2 cells at IC50 after 48 hrs by microarray analysis relative to control; type: functional
PANC-1 [8] = assay: Effect on CTBP2 gene expression in human PANC1 cells at IC50 after 48 hrs by microarray analysis; type: functional, cell-based
[9] = Selectivity index, ratio of IC50 for hTERT-BJ cells to IC50 for human CCRF-CEM cells; type: toxicity; conditions: hTERT-BJ cells versus CCRF-CEM cells, read-out: Ratio IC50
HepG2 [10] = assay: Effect on TOP2A gene expression in human HepG2 cells at IC50 after 48 hrs by microarray analysis; type: functional, cell-based
Cytochrome P450 3A4 = Cytochrome P450 3A4 (Homo sapiens, UniProt P08684); assay: Inhibition of human recombinant CYP3A4 using luciferin as substrate preincubated for 10 mins followed by substrate addition and measured after 50 mins in presence of NADPH by CYP450-Glo assay; type: ADME; conditions: recombinant enzyme
PANC-1 [11] = assay: Effect on THOC2 gene expression in human PANC1 cells at IC50 after 48 hrs by microarray analysis; type: functional, cell-based
HepG2 [12] = assay: Effect on OKL38 gene expression in human HepG2 cells at IC50 after 48 hrs by microarray analysis; type: functional, cell-based
[13] = Selectivity index, ratio of IC50 for hTERT-RPE1 cells to IC50 for human PANC1 cells; type: toxicity; conditions: hTERT-RPE1 cells versus PANC1 cells, read-out: Ratio IC50
PANC-1 [14] = assay: Effect on UPP1 gene expression in human PANC1 cells at IC50 after 48 hrs by microarray analysis; type: functional, cell-based
TERT-RPE1 [15] = assay: Cytotoxicity against hTERT-RPE1 cells at 12.50 uM after 48 hrs by resazurin dye-based fluorescence assay relative to control; type: cell-based; conditions: human, tert-rpe1, 48 h, 12.5 µM
PANC-1 [16] = assay: Effect on ABCB4 gene expression in human PANC1 cells at IC50 after 48 hrs by microarray analysis; type: functional, cell-based
HepG2 [17] = assay: Effect on CASP7 gene expression in human HepG2 cells at IC50 after 48 hrs by microarray analysis relative to control; type: functional
PANC-1 [18] = assay: Effect on CLDN14 gene expression in human PANC1 cells at IC50 after 48 hrs by microarray analysis; type: functional, cell-based
hTERT-BJ [19] = assay: Cytotoxicity against hTERT-BJ cells at 50 uM after 48 hrs by resazurin dye-based fluorescence assay relative to control; type: cell-based; conditions: human
HepG2 [20] = assay: Effect on CPB2 gene expression in human HepG2 cells at IC50 after 48 hrs by microarray analysis; type: functional, cell-based
PANC-1 [21] = assay: Effect on ELP2P gene expression in human PANC1 cells at IC50 after 48 hrs by microarray analysis; type: functional, cell-based
hTERT-BJ [22] = assay: Cytotoxicity against hTERT-BJ cells at 6.25 uM after 48 hrs by resazurin dye-based fluorescence assay relative to control; type: cell-based; conditions: human
PANC-1 [23] = assay: Effect on TDG gene expression in human PANC1 cells at IC50 after 48 hrs by microarray analysis; type: functional, cell-based
HepG2 [24] = assay: Effect on TOP2A gene expression in human HepG2 cells at IC50 by SYBR green-dye based qRT-PCR analysis relative to beta-actin; type: functional
PANC-1 [25] = assay: Effect on HEATR3 gene expression in human PANC1 cells at IC50 after 48 hrs by microarray analysis; type: functional, cell-based
PANC-1 [26] = assay: Effect on CAMK2N1 gene expression in human PANC1 cells at IC50 after 48 hrs by microarray analysis; type: functional, cell-based
PANC-1 [27] = assay: Effect on EIF5 gene expression in human PANC1 cells at IC50 after 48 hrs by microarray analysis; type: functional, cell-based
HepG2 [28] = assay: Effect on CASP2 gene expression in human HepG2 cells at IC50 after 48 hrs by microarray analysis; type: functional, cell-based
HepG2 [29] = assay: Effect on TOP3B gene expression in human HepG2 cells at IC50 after 48 hrs by microarray analysis; type: functional, cell-based
HepG2 [30] = assay: Effect on INHBE gene expression in human HepG2 cells at IC50 after 48 hrs by microarray analysis; type: functional, cell-based
HepG2 [31] = assay: Effect on AKR1B10 gene expression in human HepG2 cells at IC50 after 48 hrs by microarray analysis; type: functional, cell-based
HepG2 [32] = assay: Effect on GADD45A gene expression in human HepG2 cells at IC50 by SYBR green-dye based qRT-PCR analysis relative to beta-actin; type: functional
PANC-1 [33] = assay: Effect on HIST1H4C gene expression in human PANC1 cells at IC50 after 48 hrs by microarray analysis; type: functional, cell-based
HepG2 [34] = assay: Effect on TOP2B gene expression in human HepG2 cells at IC50 after 48 hrs by microarray analysis; type: functional, cell-based
TERT-RPE1 [35] = assay: Cytotoxicity against hTERT-RPE1 cells at 50 uM after 48 hrs by resazurin dye-based fluorescence assay relative to control; type: cell-based; conditions: human, tert-rpe1, 48 h
[36] = Selectivity index, ratio of IC50 for hTERT-RPE1 cells to IC50 for human HepG2 cells; type: toxicity; conditions: hTERT-RPE1 cells versus HepG2 cells, read-out: Ratio IC50
PANC-1 [37] = assay: Effect on PCNA gene expression in human PANC1 cells at IC50 after 48 hrs by microarray analysis; type: functional, cell-based
HepG2 [38] = assay: Effect on CASP8 gene expression in human HepG2 cells at IC50 after 48 hrs by microarray analysis; type: functional, cell-based
PANC-1 [39] = assay: Effect on ZNF148 gene expression in human PANC1 cells at IC50 after 48 hrs by microarray analysis; type: functional, cell-based
HepG2 [40] = assay: Effect on ARK1B15 gene expression in human HepG2 cells at IC50 after 48 hrs by microarray analysis; type: functional, cell-based
HepG2 [41] = assay: Effect on DKK1 gene expression in human HepG2 cells at IC50 after 48 hrs by microarray analysis; type: functional, cell-based
HepG2 [42] = assay: Effect on TOP3A gene expression in human HepG2 cells at IC50 after 48 hrs by microarray analysis; type: functional, cell-based
HepG2 [43] = assay: Effect on GST M1 gene expression in human HepG2 cells at IC50 after 48 hrs by microarray analysis; type: functional, cell-based
HepG2 [44] = assay: Effect on WNT2B gene expression in human HepG2 cells at IC50 after 48 hrs by microarray analysis; type: functional, cell-based
PANC-1 [45] = assay: Effect on NSBP1 gene expression in human PANC1 cells at IC50 after 48 hrs by microarray analysis; type: functional, cell-based

Cytochrome P450 3A4, sequence (P08684 whole entry): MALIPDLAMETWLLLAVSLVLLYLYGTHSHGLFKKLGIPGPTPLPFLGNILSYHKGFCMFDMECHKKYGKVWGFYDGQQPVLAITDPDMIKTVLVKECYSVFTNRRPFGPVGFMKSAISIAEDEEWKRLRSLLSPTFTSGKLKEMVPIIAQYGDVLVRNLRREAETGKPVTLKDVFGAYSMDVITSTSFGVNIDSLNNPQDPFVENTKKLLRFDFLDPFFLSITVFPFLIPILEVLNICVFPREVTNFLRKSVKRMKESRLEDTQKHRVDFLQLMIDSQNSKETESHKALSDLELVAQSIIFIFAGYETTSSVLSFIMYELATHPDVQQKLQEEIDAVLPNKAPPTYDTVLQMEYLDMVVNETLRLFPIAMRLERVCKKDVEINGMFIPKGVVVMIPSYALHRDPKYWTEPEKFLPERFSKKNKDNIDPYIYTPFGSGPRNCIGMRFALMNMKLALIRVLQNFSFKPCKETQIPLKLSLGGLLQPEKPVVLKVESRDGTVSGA

O=C(N/N=C/c1cc2ccccc2nc1Cl)c1cc2cc(Br)ccc2oc1=O
-3.57: fold change (FC) (HepG2 [7])
> 9.18: selectivity ratio [13]
> 6.71: selectivity ratio [1] | selectivity ratio [9]
active: Activity (PANC-1 [2]) | Activity (HepG2 [3]) | Activity (PANC-1 [5]) | Activity (HepG2 [6]) | Activity (PANC-1 [8]) | Activity (HepG2 [10]) | Activity (PANC-1 [11]) | Activity (HepG2 [12]) | Activity (PANC-1 [14]) | Activity (PANC-1 [16]) | Activity (PANC-1 [18]) | Activity (HepG2 [20]) | Activity (PANC-1 [21]) | Activity (PANC-1 [23]) | Activity (PANC-1 [25]) | Activity (PANC-1 [26]) | Activity (PANC-1 [27]) | Activity (HepG2 [28]) | Activity (HepG2 [29]) | Activity (HepG2 [30]) | Activity (HepG2 [31]) | Activity (PANC-1 [33]) | Activity (HepG2 [34]) | Activity (PANC-1 [37]) | Activity (HepG2 [38]) | Activity (PANC-1 [39]) | Activity (HepG2 [40]) | Activity (HepG2 [41]) | Activity (HepG2 [42]) | Activity (HepG2 [43]) | Activity (HepG2 [44]) | Activity (PANC-1 [45])
3.52: fold change (FC) (HepG2 [32])
Dose-dependent effect: inhibition (INH) (Cytochrome P450 3A4)
12.73%: Activity (TERT-RPE1 [15])
-1.54: fold change (FC) (HepG2 [24])
5.18%: Activity (hTERT-BJ [19])
3.18: fold change (FC) (HepG2 [17])
Active: Activity (PANC-1 [4])
> 5.31: selectivity ratio [36]
20.18%: Activity (TERT-RPE1 [35])
1.98%: Activity (hTERT-BJ [22])
